The numbers were not newly measured in patent publication US20060275223A1, “Erythritol compositions for teeth and gums” (priority 2005, published 2006), which cites them from elsewhere.

The structures appear in SMILES notation.

For this data set the following is noted: erythritol comprises 20% of the diet.

Take `OC[C@@H](O)[C@@H](O)CO` [erythritol]: the diarrhea entry was “does not cause diarrhea”.
